Measured values from patent US20220117938A1, “COMBINATON THERAPY WITH A DON PRODRUG AND AN IMMUNE CHECKPOINT INHIBITOR” (DRACEN PHARMACEUTICALS, INC., priority 2019, published 2022).

Test system: MC38 tumors
Test: Anti-tumor efficacy of Compound 1 and Compound 3 by IV and SC routes in the MC38 model (Example 9)
Type: in vivo, mice
Protocol: Female C57BL/6 mice were inoculated subcutaneously in the right flank with MC38 cells for tumor development. Six days after tumor inoculation, mice with tumor sizes ranging from 52-97 mm^3 (average tumor size 71 mm^3) were selected and assigned into 10 groups using stratified randomization with 8 mice per group based upon their tumor volumes. The treatments were started from the day of randomization (defined as D0), Group 1 was treated with Vehicle control, SC qd×5 days on (Mon-Fri)×4 cycles; Group 2 was treated with Compound 1, 1.4 mpk SC, qd×5 days on (Mon-Fri)×4 cycles; Group 3 was treated with Compound 1, 7 mpk IV, biw (Mon, Thu)×4 cycles; Group 4 was treated with Compound 1, 14 mpk IV, biw (Mon, Thu)×4 cycles; Group 5 was treated with Compound 1, 14 mpk IV, qw (Mon)×4 cycles; Group 6 was treated with Compound 1, 21 mpk IV, qw (Mon)×4 cycles; Group 7 was treated with Compound 3, 1 mpk SC, qd 5 days on (Mon-Fri)×4 cycles; Group 8 was treated with Compound 3, 3 mpk SC, qd 5 days on (Mon-Fri)×4 cycles; Group 9 was treated with Compound 3, 9 mpk SC, qd 5 days on (Mon-Fri)×4 cycles; and Group 10 was treated with Compound 3, 7 mpk IV, tiw (Mon, Wed, Fri)×4 cycles. The tumor sizes were measured three times per week during the treatment. Survival was monitored with tumor volume exceeding 2000 mm^3 as endpoint. The entire study was terminated on D44 after start of the treatment. All treatments were well-tolerated without any adverse effects or significant body weight loss.

[1] = Group 2, 1.4 mpk SC qd Mon-Fri x4 cycles
[2] = Group 2, 1.4 mpk SC qd Mon-Fri x4 cycles, day 11
[3] = Group 3, 7 mpk IV biw x4 cycles
[4] = Group 3, 7 mpk IV biw x4 cycles, day 11
[5] = Group 4, 14 mpk IV biw x4 cycles
[6] = Group 4, 14 mpk IV biw x4 cycles, day 11
[7] = Group 5, 14 mpk IV qw x4 cycles
[8] = Group 5, 14 mpk IV qw x4 cycles, day 11
[9] = Group 6, 21 mpk IV qw x4 cycles
[10] = Group 6, 21 mpk IV qw x4 cycles, day 11

For `CC(=O)N[C@@H](Cc1c[nH]c2ccccc12)C(=O)N[C@@H](CCC(=O)C=[N+]=[N-])C(=O)OC(C)C` [Compound 1, Isopropyl (S)-2-((S)-2-acetamido-3-(1H-indol-3-yl)propanamido)-6-diazo-5-oxohexanoate], the ILS [1] was 170.0%, the MST [1] was 40.5 days and the “RTV at day 11” value [1] was 0.63 ± 0.11. The “Tumor Size at day 11” value [1] was 43 ± 6 mm^3, the Tumor volume (Group 2, 1.4 mpk SC qd Mon-Fri x4 cycles, day 0) was 71 ± 5 mm^3 and the Tumor volume (Group 2, 1.4 mpk SC qd Mon-Fri x4 cycles, day 2) was 64 ± 5 mm^3. For the same molecule, the Tumor volume (Group 2, 1.4 mpk SC qd Mon-Fri x4 cycles, day 4) was 68 ± 10 mm^3, the Tumor volume (Group 2, 1.4 mpk SC qd Mon-Fri x4 cycles, day 7) was 61 ± 5 mm^3 and the Tumor volume (Group 2, 1.4 mpk SC qd Mon-Fri x4 cycles, day 9) was 39 ± 3 mm^3. For the same molecule, the T/C [2] was 3.86%, the TGI [2] was 102.69% and the Tumor volume [2] was 43 ± 6 mm^3. For the same molecule, the Tumor volume (Group 2, 1.4 mpk SC qd Mon-Fri x4 cycles, day 14) was 51 ± 9 mm^3, the Tumor volume (Group 2, 1.4 mpk SC qd Mon-Fri x4 cycles, day 16) was 50 ± 7 mm^3 and the Tumor volume (Group 2, 1.4 mpk SC qd Mon-Fri x4 cycles, day 18) was 52 ± 9 mm^3. It also gave a Tumor volume (Group 2, 1.4 mpk SC qd Mon-Fri x4 cycles, day 21) of 44 ± 7 mm^3, a Tumor volume (Group 2, 1.4 mpk SC qd Mon-Fri x4 cycles, day 23) of 41 ± 9 mm^3 and a Tumor volume (Group 2, 1.4 mpk SC qd Mon-Fri x4 cycles, day 25) of 42 ± 11 mm^3. For the same molecule, the Tumor volume (Group 2, 1.4 mpk SC qd Mon-Fri x4 cycles, day 28) was 55 ± 14 mm^3, the Tumor volume (Group 2, 1.4 mpk SC qd Mon-Fri x4 cycles, day 30) was 140 ± 50 mm^3 and the Tumor volume (Group 2, 1.4 mpk SC qd Mon-Fri x4 cycles, day 32) was 303 ± 119 mm^3. The Tumor volume (Group 2, 1.4 mpk SC qd Mon-Fri x4 cycles, day 35) was 509 ± 166 mm^3, the Tumor volume (Group 2, 1.4 mpk SC qd Mon-Fri x4 cycles, day 37) was 896 ± 217 mm^3 and the ILS [3] was 123.3%. The MST [3] was 33.5 days, the “RTV at day 11” value [3] was 1.44 ± 0.20 and the “Tumor Size at day 11” value [3] was 99 ± 11 mm^3. It also gave a Tumor volume (Group 3, 7 mpk IV biw x4 cycles, day 0) of 71 ± 4 mm^3, a Tumor volume (Group 3, 7 mpk IV biw x4 cycles, day 2) of 61 ± 9 mm^3 and a Tumor volume (Group 3, 7 mpk IV biw x4 cycles, day 4) of 64 ± 7 mm^3. It also gave a Tumor volume (Group 3, 7 mpk IV biw x4 cycles, day 7) of 98 ± 8 mm^3, a Tumor volume (Group 3, 7 mpk IV biw x4 cycles, day 9) of 79 ± 7 mm^3 and a T/C [4] of 8.87%. For the same molecule, the TGI [4] was 97.42%, the Tumor volume [4] was 99 ± 11 mm^3 and the Tumor volume (Group 3, 7 mpk IV biw x4 cycles, day 14) was 140 ± 16 mm^3. For the same molecule, the Tumor volume (Group 3, 7 mpk IV biw x4 cycles, day 16) was 134 ± 10 mm^3, the Tumor volume (Group 3, 7 mpk IV biw x4 cycles, day 18) was 133 ± 15 mm^3 and the Tumor volume (Group 3, 7 mpk IV biw x4 cycles, day 21) was 236 ± 36 mm^3. It also gave a Tumor volume (Group 3, 7 mpk IV biw x4 cycles, day 23) of 317 ± 59 mm^3, a Tumor volume (Group 3, 7 mpk IV biw x4 cycles, day 25) of 337 ± 56 mm^3 and a Tumor volume (Group 3, 7 mpk IV biw x4 cycles, day 28) of 602 ± 144 mm^3. It also gave a Tumor volume (Group 3, 7 mpk IV biw x4 cycles, day 30) of 1181 ± 278 mm^3, an ILS [5] of 133.3% and an MST [5] of 35 days. For the same molecule, the “RTV at day 11” value [5] was 1.06 ± 0.22, the “Tumor Size at day 11” value [5] was 69 ± 11 mm^3 and the Tumor volume (Group 4, 14 mpk IV biw x4 cycles, day 0) was 72 ± 6 mm^3. The Tumor volume (Group 4, 14 mpk IV biw x4 cycles, day 2) was 80 ± 12 mm^3, the Tumor volume (Group 4, 14 mpk IV biw x4 cycles, day 4) was 70 ± 8 mm^3 and the Tumor volume (Group 4, 14 mpk IV biw x4 cycles, day 7) was 86 ± 13 mm^3. For the same molecule, the Tumor volume (Group 4, 14 mpk IV biw x4 cycles, day 9) was 70 ± 11 mm^3, the T/C [6] was 6.51% and the TGI [6] was 100.28%. The Tumor volume [6] was 69 ± 11 mm^3, the Tumor volume (Group 4, 14 mpk IV biw x4 cycles, day 14) was 95 ± 14 mm^3 and the Tumor volume (Group 4, 14 mpk IV biw x4 cycles, day 16) was 107 ± 25 mm^3. It also gave a Tumor volume (Group 4, 14 mpk IV biw x4 cycles, day 18) of 96 ± 22 mm^3, a Tumor volume (Group 4, 14 mpk IV biw x4 cycles, day 21) of 144 ± 45 mm^3 and a Tumor volume (Group 4, 14 mpk IV biw x4 cycles, day 23) of 163 ± 41 mm^3. The Tumor volume (Group 4, 14 mpk IV biw x4 cycles, day 25) was 167 ± 47 mm^3, the Tumor volume (Group 4, 14 mpk IV biw x4 cycles, day 28) was 261 ± 54 mm^3 and the Tumor volume (Group 4, 14 mpk IV biw x4 cycles, day 30) was 562 ± 124 mm^3. For the same molecule, the Tumor volume (Group 4, 14 mpk IV biw x4 cycles, day 32) was 967 ± 171 mm^3, the Tumor volume (Group 4, 14 mpk IV biw x4 cycles, day 35) was 1884 ± 337 mm^3 and the ILS [7] was 86.7%. The MST [7] was 28 days, the “RTV at day 11” value [7] was 2.06 ± 0.40 and the “Tumor Size at day 11” value [7] was 134 ± 21 mm^3. For the same molecule, the Tumor volume (Group 5, 14 mpk IV qw x4 cycles, day 0) was 70 ± 4 mm^3, the Tumor volume (Group 5, 14 mpk IV qw x4 cycles, day 2) was 67 ± 5 mm^3 and the Tumor volume (Group 5, 14 mpk IV qw x4 cycles, day 4) was 77 ± 12 mm^3. For the same molecule, the Tumor volume (Group 5, 14 mpk IV qw x4 cycles, day 7) was 152 ± 20 mm^3, the Tumor volume (Group 5, 14 mpk IV qw x4 cycles, day 9) was 105 ± 12 mm^3 and the T/C [8] was 12.69%. For the same molecule, the TGI [8] was 93.98%, the Tumor volume [8] was 134 ± 21 mm^3 and the Tumor volume (Group 5, 14 mpk IV qw x4 cycles, day 14) was 312 ± 56 mm^3. For the same molecule, the ILS [9] was 60.0%, the MST [9] was 24 days and the “RTV at day 11” value [9] was 2.86 ± 0.39. For the same molecule, the “Tumor Size at day 11” value [9] was 206 ± 33 mm^3, the Tumor volume (Group 6, 21 mpk IV qw x4 cycles, day 0) was 71 ± 4 mm^3 and the Tumor volume (Group 6, 21 mpk IV qw x4 cycles, day 2) was 79 ± 10 mm^3. The Tumor volume (Group 6, 21 mpk IV qw x4 cycles, day 4) was 80 ± 9 mm^3, the Tumor volume (Group 6, 21 mpk IV qw x4 cycles, day 7) was 182 ± 24 mm^3 and the Tumor volume (Group 6, 21 mpk IV qw x4 cycles, day 9) was 164 ± 21 mm^3. The T/C [10] was 17.57%, the TGI [10] was 87.26% and the Tumor volume [10] was 206 ± 33 mm^3. It also gave a Tumor volume (Group 6, 21 mpk IV qw x4 cycles, day 14) of 440 ± 87 mm^3, a Tumor volume (Group 6, 21 mpk IV qw x4 cycles, day 16) of 515 ± 84 mm^3 and a Tumor volume (Group 6, 21 mpk IV qw x4 cycles, day 18) of 740 ± 120 mm^3. It also gave a Tumor volume (Group 6, 21 mpk IV qw x4 cycles, day 21) of 1005 ± 174 mm^3 and a Tumor volume (Group 6, 21 mpk IV qw x4 cycles, day 23) of 1683 ± 302 mm^3.
